Like-named read-outs stand apart in the source and are kept apart here.
Assays:
Test in all cases: Test A postemergence
Assay type in all cases: in vivo
[1] = test system: pigweed (Amaranthus retroflexus); conditions: Amaranthus retroflexus, post-emergence, 240 h; for pest or weed control at 125 g/ha: 125 g ai/ha; for pest or weed control at 500 g/ha: 500 g ai/ha, visual injury, approx. 10 d
Method in brief: (§1)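 Each rating is a visual injury score from 0 to 100 given about 10 d after treatment, judged against untreated controls kept alongside in the greenhouse. In loam soil–sand blend, seeds got a preemergence directed soil spray, while postemergence plants were 2 to 10 cm tall at spraying.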

[2] = test system: barnyardgrass (Echinochloa crus-galli); conditions: Echinochloa crus-galli, post-emergence, 240 h; for pest or weed control at 125 g/ha: 125 g ai/ha; for pest or weed control at 500 g/ha: 500 g ai/ha, visual injury, approx. 10 d
Method in brief: as §1

[3] = test system: wheat (Triticum aestivum); conditions: Triticum aestivum, post-emergence, 240 h; for plant injury at 125 g/ha: 125 g ai/ha; for plant injury at 500 g/ha: 500 g ai/ha, visual injury, approx. 10 d
Method in brief: as §1

[4] = test system: ragweed (common ragweed, Ambrosia elatior); conditions: Ambrosia artemisiifolia, post-emergence, 240 h; for pest or weed control at 125 g/ha: 125 g ai/ha
Method in brief: as §1

[5] = test system: Galium (catchweed bedstraw, Galium aparine); conditions: Galium, post-emergence, 240 h; for pest or weed control at 125 g/ha: 125 g ai/ha
Method in brief: as §1

corn (Zea mays) = conditions: Zea mays, post-emergence, 240 h; for Corn plant response rating (crop injury, 0 = no effect, 100 = complete kill) at 125 g/ha / plant injury at 125 g/ha: 125 g ai/ha; for Corn plant response rating (crop injury, 0 = no effect, 100 = complete kill) at 125 g/ha: postemergence, visual injury after approximately 10 d; for Corn plant response rating (crop injury, 0 = no effect, 100 = complete kill) at 125 g/ha / Corn plant response rating (crop injury, 0 = no effect, 100 = complete kill) at 500 g/ha: 0 to 100 scale (0 no effect, 100 complete control); for plant injury at 125 g/ha / Corn plant response rating (crop injury, 0 = no effect, 100 = complete kill) at 500 g/ha: Postemergence; for plant injury at 125 g/ha: visual rating about 10 d after treatment, read-out: Corn plant response rating (0 to 100 scale); for Corn plant response rating (crop injury, 0 = no effect, 100 = complete kill) at 500 g/ha: 500 g ai/ha, visual injury, approx. 10 d
Method in brief: as §1

[6] = postemergence, visual injury after approximately 10 d, 0 to 100 scale (0 no effect, 100 complete control), read-out: Plant response rating, Pigweed
[7] = postemergence, visual injury after approximately 10 d, 0 to 100 scale (0 no effect, 100 complete control), read-out: Plant response rating, Barnyardgrass
[8] = postemergence, visual injury after approximately 10 d, 0 to 100 scale (0 no effect, 100 complete control), read-out: Plant response rating, Wheat
[9] = postemergence, visual injury after approximately 10 d, 0 to 100 scale (0 no effect, 100 complete control), read-out: Plant response rating, Ragweed
[10] = postemergence, visual injury after approximately 10 d, 0 to 100 scale (0 no effect, 100 complete control), read-out: Plant response rating, Galium
[11] = Postemergence, visual rating about 10 d after treatment, read-out: Pigweed plant response rating (0 to 100 scale)
[12] = Postemergence, 0 to 100 scale (0 no effect, 100 complete control), read-out: Plant response rating, Pigweed
[13] = Postemergence, visual rating about 10 d after treatment, read-out: Barnyardgrass plant response rating (0 to 100 scale, 0 no effect, 100 complete control)
[14] = Postemergence, 0 to 100 scale (0 no effect, 100 complete control), read-out: Plant response rating, Barnyardgrass
[15] = Postemergence, visual rating about 10 d after treatment, read-out: Wheat plant response rating (0 to 100 scale)
[16] = Postemergence, 0 to 100 scale (0 no effect, 100 complete control), read-out: Plant response rating, Wheat

| Structure (SMILES) | pest or weed control at 125 g/ha [1, 6] [%] | pest or weed control at 125 g/ha [2, 7] [%] | plant injury at 125 g/ha [3, 8] [%] | pest or weed control at 125 g/ha [4, 9] [%] | pest or weed control at 125 g/ha [5, 10] [%] | Corn plant response rating (crop injury, 0 = no effect, 100 = complete kill) at 125 g/ha (corn (Zea mays)) [%] | pest or weed control at 125 g/ha [1, 11] [%] | pest or weed control at 500 g/ha [1, 12] [%] | pest or weed control at 125 g/ha [2, 13] [%] | pest or weed control at 500 g/ha [2, 14] [%] | plant injury at 125 g/ha [3, 15] [%] | plant injury at 500 g/ha [3, 16] [%] | plant injury at 125 g/ha (corn (Zea mays)) [%] | Corn plant response rating (crop injury, 0 = no effect, 100 = complete kill) at 500 g/ha (corn (Zea mays)) [%] | pest or weed control at 125 g/ha ([4]; Postemergence, visual rating about 10 d after treatment, read-out: Ragweed plant response rating (0 to 100 scale)) [%] | pest or weed control at 500 g/ha ([4]; Postemergence, 500 g ai/ha, visual injury, 0 to 100 scale (0 no effect, 100 complete control), approx. 10 d, read-out: Plant response rating, Ragweed) [%] | pest or weed control at 125 g/ha ([5]; Postemergence, visual rating about 10 d after treatment, read-out: Galium plant response rating (0 to 100 scale)) [%] | pest or weed control at 500 g/ha ([5]; Postemergence, 500 g ai/ha, visual injury, 0 to 100 scale (0 no effect, 100 complete control), approx. 10 d, read-out: Plant response rating, Galium) [%] |
| --- | --- | --- | --- | --- | --- | --- | --- | --- | --- | --- | --- | --- | --- | --- | --- | --- | --- | --- |
| CCc1cc(CC)cc([C@H]2CN(C)C(=O)[C@@H]2C(=O)Nc2cccc(F)c2F)c1 [Compound 736] | 20 | 90 | 50 | 0 | 50 | 90 | – | – | – | – | – | – | – | – | – | – | – | – |
| CN1C[C@H](c2ccc(F)c(OC(F)(F)C(F)F)c2)[C@@H](C(=O)Nc2ccccc2F)C1=O [Compound 740] | 40 | 90 | 50 | 0 | 50 | 70 | – | – | – | – | – | – | – | – | – | – | – | – |
| CN1C[C@H](c2cccc(C(F)(F)F)c2)[C@@H](C(=O)Nc2ccccc2C2CC2)C1=O [Compound 749] | 0 | 0 | 0 | 0 | 0 | 0 | – | – | – | – | – | – | – | – | – | – | – | – |
| CN1C[C@H](c2ccc(OC(F)F)cc2)[C@@H](C(=O)Nc2ccccc2S(C)(=O)=O)C1=O [Compound 788] | 60 | 80 | – | 40 | 50 | 20 | – | – | – | – | – | – | – | – | – | – | – | – |
| N#Cc1ccc(NC(=O)C2C(=O)NCC2c2ccccc2)cc1 (centres unmarked) [Compound 1355] | – | – | – | – | – | – | 0 | 0 | 0 | 0 | 0 | 0 | 0 | 0 | – | – | – | – |
| O=C1NCC(c2ccccc2)C1C(=O)Nc1cccnc1 (centres unmarked) [Compound 1356] | – | – | – | – | – | – | 0 | 0 | 0 | 0 | 0 | 0 | 0 | 0 | – | – | – | – |
| O=C1NCC(c2ccccc2)C1C(=O)Nc1ccccc1Oc1ccccc1 (centres unmarked) [Compound 1357] | – | – | – | – | – | – | 0 | 0 | 0 | 0 | 0 | 0 | 0 | 0 | – | – | – | – |
| O=C1NCC(c2ccccc2)C1C(=O)Nc1ccccc1 (centres unmarked) [Compound 1358] | – | – | – | – | – | – | 0 | 0 | 0 | 0 | 0 | 0 | 0 | 0 | – | – | – | – |
| CN1C[C@H](c2ccc(C(F)(F)F)nc2)[C@@H](C(=O)Nc2cccc(F)c2F)C1=O [Compound 1372] | – | – | – | – | – | – | 60 | 80 | – | – | 70 | 90 | 70 | 90 | 60 | 60 | 60 | 70 |
